Active and inactive are the calls of the source.
Key:
[1] = viability of uninfected HEp-2 cells – cell-based, HTS, cytotoxicity control for RSV inhibitor project, dose response (AID 2410); assay type: functional; details: human respiratory syncytial virus
[2] = luciferase reporter signal suppression in cells – H4 neuroglioma cells, luminescence, dose response (AID 1990); assay type: functional, cell-based
[3] = alpha-synuclein stem-loop luciferase translation blockers – H4 neuroglioma cells, luminescence, confirmation (AID 1988); assay type: functional, cell-based
[4] = Luminescence Cell-Based Dose Response HTS to Identify Inhibitors of 5'UTR Stem-Loop Driven Prion Protein mRNA Translation in H4 Neuroglioblastoma Cells. [Related pubchem assays: 1827 (Project Summary), 1813 (Primary HTS)]; assay type: functional
H4 = assay: Luminescence Cell-Based Dose Response HTS to Identify Activators of 5'UTR Stem-Loop Driven Prion Protein mRNA Translation in H4 Neuroglioblastoma Cells. [Related pubchem assays: 1829 (Project Summary), 1814 (Primary HTS)]; assay type: functional; details: Homo sapiens
INS1 = assay: INS-1E survival protection against cytokine death – cell-based, luminescence, retest, dose response (AID 449756); assay type: functional; details: Rattus norvegicus;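 also: cell death triggered by IL-1 beta plus TNF-alpha plus IFN-gamma mixture; protective hits raise ATP signal compared with cytokine alone wells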
Cytochrome P450 2C9 = Cytochrome P450 2C9 (Homo sapiens, UniProt P11712)
Cytochrome P450 2C19 = Cytochrome P450 2C19 (Homo sapiens, UniProt P33261); assay: Cytochrome panel assay with activity outcomes. Panel member name: p450-cyp2c19 Compounds with AC50 equal or less than 10 uM are considered active; assay type: functional
Cytochrome P450 3A4 = Cytochrome P450 3A4 (Homo sapiens, UniProt P08684);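 also: CYP3A4 tested as one member of a cytochrome P450 panel screen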
[5] = molecular target: T1, Rac GTPase-activating protein 1 (Homo sapiens, UniProt Q9H0H5); assay: blockers of MgcRacGAP-driven Rac1 GTP hydrolysis – biochemical, ADP Hunter fluorescence, primary and confirmatory, confirmation (AID 624330); assay type: functional
T1 sequence (Q9H0H5 whole entry): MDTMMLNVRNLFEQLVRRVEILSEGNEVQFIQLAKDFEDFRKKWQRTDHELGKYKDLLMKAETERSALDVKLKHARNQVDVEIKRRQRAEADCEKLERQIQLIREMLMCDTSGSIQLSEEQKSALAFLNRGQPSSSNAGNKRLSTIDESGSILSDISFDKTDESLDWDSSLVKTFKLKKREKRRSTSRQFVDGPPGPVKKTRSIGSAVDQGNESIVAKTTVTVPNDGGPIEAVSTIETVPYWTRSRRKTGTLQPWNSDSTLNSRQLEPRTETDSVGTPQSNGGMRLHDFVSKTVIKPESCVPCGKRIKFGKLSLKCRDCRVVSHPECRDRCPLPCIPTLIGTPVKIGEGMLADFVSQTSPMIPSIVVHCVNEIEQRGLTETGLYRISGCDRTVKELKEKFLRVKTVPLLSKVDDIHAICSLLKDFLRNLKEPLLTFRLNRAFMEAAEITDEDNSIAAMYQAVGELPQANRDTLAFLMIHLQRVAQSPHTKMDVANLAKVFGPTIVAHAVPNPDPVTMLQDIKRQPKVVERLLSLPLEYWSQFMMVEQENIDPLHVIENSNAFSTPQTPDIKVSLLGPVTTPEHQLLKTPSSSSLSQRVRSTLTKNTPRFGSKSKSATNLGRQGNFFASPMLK

[6] = Luminescence Cell-Based Dose Response HTS to Identify Activators of Luciferase Translation or Activity in H4 […] Cells. [Related pubchem assays: 1829 (Project Summary), 1814 (Primary HTS)]; assay type: functional
[7] = Luminescence Cell-Based Dose Confirmation HTS to Identify Activators of 5'UTR Stem-Loop Driven Alpha-Synuclein mRNA Translation in H4 Neuroglioblastoma Cells. [Related pubchem assays: 1829 (Project Summary), 1814 (Primary HTS)]; assay type: functional
[8] = molecular target: T2, Corticotropin-releasing factor receptor 2/Corticotropin-releasing factor-binding protein (Homo sapiens, UniProt P24387+Q13324); assay: activators of CRF receptor 2 with binding protein – uHTS hits, confirmation (AID 602473); assay type: functional; details: read-out: EC50_Mean
T2 sequence (Q13324 whole entry): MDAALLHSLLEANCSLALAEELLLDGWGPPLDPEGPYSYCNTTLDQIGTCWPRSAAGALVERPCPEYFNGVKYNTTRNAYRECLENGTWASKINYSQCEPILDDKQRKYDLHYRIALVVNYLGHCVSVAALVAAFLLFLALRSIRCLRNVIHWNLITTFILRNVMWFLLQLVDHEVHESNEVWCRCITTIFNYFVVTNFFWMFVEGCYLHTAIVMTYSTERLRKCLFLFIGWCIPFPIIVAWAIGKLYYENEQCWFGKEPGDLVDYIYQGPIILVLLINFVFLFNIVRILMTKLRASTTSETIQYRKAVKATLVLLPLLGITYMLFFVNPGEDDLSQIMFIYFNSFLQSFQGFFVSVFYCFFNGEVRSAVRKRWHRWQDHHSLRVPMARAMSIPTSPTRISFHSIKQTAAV
T2 sequence (P24387 whole entry): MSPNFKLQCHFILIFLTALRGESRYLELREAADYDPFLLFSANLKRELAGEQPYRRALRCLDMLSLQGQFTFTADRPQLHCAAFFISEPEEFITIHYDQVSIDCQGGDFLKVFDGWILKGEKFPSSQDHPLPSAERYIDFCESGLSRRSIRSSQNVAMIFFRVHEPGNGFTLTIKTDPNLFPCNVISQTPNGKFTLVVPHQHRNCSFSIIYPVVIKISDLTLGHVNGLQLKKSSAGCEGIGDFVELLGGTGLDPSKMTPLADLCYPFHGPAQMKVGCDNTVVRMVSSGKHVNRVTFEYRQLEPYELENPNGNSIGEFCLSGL

Cytochrome P450 1A2 = molecular target: T3, Cytochrome P450 1A2 (Homo sapiens, UniProt P05177);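 also: PubChem cytochrome P450 panel assay, CYP1A2 panel member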
T3 sequence (P05177 whole entry): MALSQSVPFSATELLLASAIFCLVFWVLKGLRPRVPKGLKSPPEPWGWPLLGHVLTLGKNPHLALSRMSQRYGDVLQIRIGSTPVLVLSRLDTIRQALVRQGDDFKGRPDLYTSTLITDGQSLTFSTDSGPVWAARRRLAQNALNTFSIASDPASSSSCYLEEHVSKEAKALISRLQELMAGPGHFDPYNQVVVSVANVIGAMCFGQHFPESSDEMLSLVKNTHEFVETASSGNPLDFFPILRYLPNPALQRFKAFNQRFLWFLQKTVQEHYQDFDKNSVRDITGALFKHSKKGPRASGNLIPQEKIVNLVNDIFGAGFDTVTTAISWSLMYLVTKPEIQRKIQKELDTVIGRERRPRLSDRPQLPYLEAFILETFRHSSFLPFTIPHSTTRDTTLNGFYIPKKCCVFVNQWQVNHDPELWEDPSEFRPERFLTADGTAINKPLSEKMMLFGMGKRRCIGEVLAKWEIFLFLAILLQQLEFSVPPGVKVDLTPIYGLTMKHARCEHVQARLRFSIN

Streptococcus = assay: GAS UMAA2166 growth inhibition – luminescence, BacTiterGlo, counter-screen for streptokinase expression inhibitor project, dose response (AID 1915); assay type: functional, organism-based;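 also: potency for reduction of bacterial viability or growth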
Streptokinase A = molecular target: T4, Streptokinase A (Streptococcus pyogenes serotype M1, UniProt P10520); assay: viability-normalized secreted streptokinase activity reduction – plasminogen activation absorbance, OD405, dose response (AID 1914); assay type: functional, Streptococcus pyogenes M1 GAS;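 also: secreted streptokinase activity via plasminogen activation per viability signal from cell pellet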
T4 sequence (P10520 whole entry): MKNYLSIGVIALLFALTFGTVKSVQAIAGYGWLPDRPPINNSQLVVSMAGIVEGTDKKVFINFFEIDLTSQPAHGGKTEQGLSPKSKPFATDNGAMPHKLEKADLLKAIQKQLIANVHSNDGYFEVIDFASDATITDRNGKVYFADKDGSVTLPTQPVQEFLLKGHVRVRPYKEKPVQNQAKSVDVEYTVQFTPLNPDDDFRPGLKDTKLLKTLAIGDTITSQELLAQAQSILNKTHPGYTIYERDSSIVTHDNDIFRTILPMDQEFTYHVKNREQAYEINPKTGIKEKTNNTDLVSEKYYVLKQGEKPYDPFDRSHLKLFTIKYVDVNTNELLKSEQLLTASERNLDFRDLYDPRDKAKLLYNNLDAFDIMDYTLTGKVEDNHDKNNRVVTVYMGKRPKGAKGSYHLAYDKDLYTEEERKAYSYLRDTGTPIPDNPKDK

[9] = tested on: Streptococcus sp. 'group A'; assay: Streptococcus pyogenes SK(-)GAS viability under kanamycin – luminescence, BacTiterGlo, confirmation, counter-screen for streptokinase expression inhibitor project, dose response (AID 1900); assay type: functional, organism-based

Chain of Cytochrome P450 2C19 (P33261 whole entry): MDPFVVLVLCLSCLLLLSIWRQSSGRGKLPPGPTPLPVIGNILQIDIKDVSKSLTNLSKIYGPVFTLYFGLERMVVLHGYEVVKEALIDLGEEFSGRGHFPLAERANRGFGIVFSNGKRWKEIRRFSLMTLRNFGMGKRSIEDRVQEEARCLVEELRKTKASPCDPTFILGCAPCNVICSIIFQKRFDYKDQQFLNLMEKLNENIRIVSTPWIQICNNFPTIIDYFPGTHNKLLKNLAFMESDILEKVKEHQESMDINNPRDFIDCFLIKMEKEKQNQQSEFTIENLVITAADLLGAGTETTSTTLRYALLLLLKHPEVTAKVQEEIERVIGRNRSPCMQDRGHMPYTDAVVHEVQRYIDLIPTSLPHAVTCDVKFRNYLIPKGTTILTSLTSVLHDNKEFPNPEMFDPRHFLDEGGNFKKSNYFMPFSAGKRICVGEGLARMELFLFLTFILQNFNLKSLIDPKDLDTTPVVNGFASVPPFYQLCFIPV
Chain of Cytochrome P450 2C9 (P11712 whole entry): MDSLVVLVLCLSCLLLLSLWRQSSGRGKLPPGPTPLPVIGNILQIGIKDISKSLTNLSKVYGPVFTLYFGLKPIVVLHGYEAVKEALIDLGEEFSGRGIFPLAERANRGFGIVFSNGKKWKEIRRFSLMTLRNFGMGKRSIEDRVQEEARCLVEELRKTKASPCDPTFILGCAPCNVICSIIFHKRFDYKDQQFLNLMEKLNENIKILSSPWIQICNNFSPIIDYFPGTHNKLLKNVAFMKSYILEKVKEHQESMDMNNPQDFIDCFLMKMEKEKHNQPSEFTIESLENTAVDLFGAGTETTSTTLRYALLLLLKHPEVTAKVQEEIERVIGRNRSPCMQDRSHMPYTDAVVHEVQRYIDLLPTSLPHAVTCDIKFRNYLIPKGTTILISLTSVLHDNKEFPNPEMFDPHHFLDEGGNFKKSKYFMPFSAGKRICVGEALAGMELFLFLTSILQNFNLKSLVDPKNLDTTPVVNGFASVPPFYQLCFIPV
Chain of Cytochrome P450 3A4 (P08684 whole entry): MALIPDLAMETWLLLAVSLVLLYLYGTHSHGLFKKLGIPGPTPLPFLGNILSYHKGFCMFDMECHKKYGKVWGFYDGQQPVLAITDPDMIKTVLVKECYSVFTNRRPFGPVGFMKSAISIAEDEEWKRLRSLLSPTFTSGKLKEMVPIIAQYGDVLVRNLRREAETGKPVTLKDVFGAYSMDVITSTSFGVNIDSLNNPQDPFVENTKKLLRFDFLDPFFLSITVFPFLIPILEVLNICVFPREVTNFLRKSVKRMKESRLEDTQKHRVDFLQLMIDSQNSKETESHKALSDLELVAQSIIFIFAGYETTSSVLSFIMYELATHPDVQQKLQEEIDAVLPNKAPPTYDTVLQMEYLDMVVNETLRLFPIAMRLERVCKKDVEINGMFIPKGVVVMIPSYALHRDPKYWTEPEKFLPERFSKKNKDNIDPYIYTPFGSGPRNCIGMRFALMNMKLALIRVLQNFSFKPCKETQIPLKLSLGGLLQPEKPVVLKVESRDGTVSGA

COc1ccc(CC(=O)Nc2cc3oc4ccccc4c3cc2OC)cc1
CC50 [1]: > 50 µM (active)

O=C1N=C(N2CCOCC2)S/C1=C\c1ccccc1OS(=O)(=O)c1ccccc1
EC50 [2]: 14.8 µM (active) | EC50 [3]: > 120 µM (not active) | EC50 [4]: > 120 µM (not active)

Cc1cc(/C=C2/SC(=S)N(c3cccc(C(F)(F)F)c3)C2=O)c(C)n1-c1cccnc1
EC50 [2]: > 120 µM (not active) | EC50 [3]: > 120 µM (not active) | EC50 [4]: > 120 µM (not active)

Nc1c(C(=O)Nc2ccccc2Cl)nnn1-c1ccc2c(c1)OCCO2
EC50 (H4): > 120 µM (not active)

CCN(CC)c1ccc(/C=N/N(c2ccccc2)c2ccccc2)c(O)c1
AC50 (INS1): 5.2 µM (active)

O=C(NCc1nnc(S)n1-c1ccccc1)c1ccc(S(=O)(=O)N2CCOCC2)cc1
AC50 (Cytochrome P450 2C9): 14.1 µM (inconclusive) | AC50 (Cytochrome P450 2C19; read-out: AC50): 25.1 µM (inconclusive) | AC50 (Cytochrome P450 3A4): 31.6 µM (inconclusive)

COCC(C)NCc1ccc(OC)c(Br)c1 (stereo not drawn)
IC50 [5]: 167 µM (active)

O=C(/C=C/c1ccccc1)NC(=S)Nc1ccccc1O
EC50 (H4): 1.9 µM (active) | EC50 [6]: 66.3 µM (active) | EC50 [7]: 0.387 µM (active)

COc1ccc(F)cc1C(=O)C1CCCN(C(=O)c2ccccc2N(C)C)C1 (stereo not drawn)
CC50 [1]: 28.1 µM (active)

C[C@H]1[C@@H](OC(=O)CCC(=O)O)O[C@@H]2OC3(C)CC[C@H]4[C@H](C)CC[C@@H]1[C@@]24OO3
EC50 [2]: > 120 µM (not active) | EC50 [3]: > 120 µM (not active) | EC50 [4]: > 120 µM (not active)

CCOC(=O)c1ccc(NC(=S)N2CCSC2c2ccc(Cl)cc2)cc1 (stereo not drawn)
EC50 [8]: 4.71 µM (active) | CC50 [1]: 16.9 µM (active)

Cc1ccc([N+](=O)[O-])c(OCCN2CCCCCC2)c1
AC50 (INS1): 4.9 µM (active)

CC1CC(c2ccccc2)=Nc2ccccc2N1 (stereo not drawn)
EC50 (H4): 43 µM (active) | EC50 [6]: 10.6 µM (active) | EC50 [7]: 8.32 µM (active)

COc1ccc(/C=N/N2CCN(C)CC2)cc1O
IC50 [5]: 39.2 µM (active)

Nc1ccc2c(c1)Nc1ccccc1CC2
IC50 [5]: 27.2 µM (active)

CCc1ccc(C(=O)Nn2cnc3ccccc3c2=O)cc1
EC50 (H4): 0.887 µM (active) | EC50 [6]: 26.8 µM (active) | EC50 [7]: 2.82 µM (active)

O=c1c(-c2cccc(Cl)c2)c[nH]n1-c1ccccc1
IC50 [5]: 59.6 µM (active)

COc1ccccc1N1CCN(C(=O)CSc2ncnc3c2cnn3-c2ccc(C)c(C)c2)CC1
EC50 (H4): 54.1 µM (active) | EC50 [6]: 15.4 µM (active) | EC50 [7]: 39.4 µM (active)

COc1ccc(CN(C)CCc2ccccn2)c(OC)c1OC
IC50 [5]: 134 µM (active)

CCOc1ccc(S(=O)(=O)N2CCCCC2)cc1NC(=O)CN1CCCC1c1cccs1 (stereo not drawn)
AC50 (INS1): 4.23 µM (active)

O=C(NCCc1ccccc1)c1ccccc1NC(=O)C1CCCCC1C(=O)O (stereo not drawn)
EC50 (H4): 5.14 µM (active) | EC50 [6]: 17.9 µM (active) | EC50 [7]: 19.1 µM (active)

CC/C(=N\CCc1c(C)[nH]c2ccccc12)C1=C(O)CC(c2ccccc2)CC1=O (stereo not drawn)
EC50 [2]: > 30 µM (not active) | EC50 [3]: > 120 µM (not active) | EC50 [4]: 11.7 µM (active)

CCCCOc1ccc(CNC(=S)N/N=C/c2ccc(OC)c(OC)c2)cc1
CC50 [1]: 41.2 µM (active)

CC(=O)Nc1ccc(Nc2nc(-c3cc4ccccc4oc3=O)cs2)cc1
EC50 (H4): 1.7 µM (active) | EC50 [6]: 0.676 µM (active) | EC50 [7]: 0.397 µM (active)

CCOC(=O)c1sc2nc(NC(=O)C3CC3)sc2c1C
EC50 (H4): 28.4 µM (inconclusive) | EC50 [6]: 57.6 µM (active) | EC50 [7]: 10.8 µM (active)

CCOC(=O)C(NC(=O)CC)(Nc1sc2c(c1C(=O)OC)CCN(C)C2)C(F)(F)F (stereo not drawn)
AC50 (Cytochrome P450 1A2): 10 µM (inconclusive) | AC50 (Cytochrome P450 2C9): 15.8 µM (inconclusive) | AC50 (Cytochrome P450 2C19; read-out: AC50): 2.51 µM (inconclusive)

Cc1nc(N2CCN(S(=O)(=O)c3ccc(F)cc3)CC2)c2c(-c3cccs3)csc2n1
CC50 [1]: 16.8 µM (active)

COc1cc(/C=N/n2c(S)nnc2-c2cc(C)[nH]n2)cc(OC)c1O
IC50 [5]: 69.3 µM (active)

Cc1cc2nnc(SCC(=O)N3CCN(c4ccccc4)CC3)n2c(N)n1
AC50 (Cytochrome P450 2C9): 25.1 µM (inconclusive) | AC50 (Cytochrome P450 2C19): inconclusive

Cc1cc(C)c(OCCCCN(C)Cc2ccccc2)c(C)c1
IC50 [5]: 120 µM (active)

COC(=O)c1sccc1N/N=C/c1ccc(OC)c(OC)c1OC
EC50 (H4): 40.6 µM (active) | EC50 [6]: 9.96 µM (active) | EC50 [7]: 87.4 µM (active)

Fc1ccc(-c2csc3ncnc(N4CCc5ccccc5C4)c23)cc1
EC50 (Streptococcus): > 50 µM (not active) | EC50 (Streptokinase A): 6.92 µM (active) | EC50 [2]: 23.6 µM (active) | EC50 [3]: > 120 µM (not active) | EC50 [9]: 9.67 µM (active) | EC50 [4]: > 120 µM (not active)

COc1cc(CNc2ccc3[nH]c(O)nc3c2)ccc1OCc1cccc(C)c1
IC50 [5]: 236 µM (active)

Source: ChEMBL document CHEMBL1201862, “PubChem BioAssay data set” (2004)
